The values that follow come from patent US6797721B2, “Phorboxazole derivatives for treating cancer” (Parker Hughes Institute, priority 1999, dated 2004).

Common to all, as to assay type: cell-based
Experiment [1] has as its system human breast cancer cell line BT-20. The experiment can be described thus: In situ detection of apoptosis (nick-end-labeling, confocal microscopy). The following applies: final concentration of 100 μM, 24 hours. The protocol:
The synthetic Phorboxazole A and the synthetic analogs were also assayed for apoptosis-inducing activity. Assay for apoptosis was performed by the in situ nick-end-labeling method using an ApopTag in situ detection kit (Oncor, Gaithersburg, Md.) according to the manufacturer's reconmmendations. Immunofluorescence was used to examine the morphologic features of human breast cancer cell line BT-20 (American Type Culture Collection Rockville, Md.) treated with the novel phorboxazole A derivatives of the present invention.
Cells were trypsinized from rapidly growing tissue culture flasks and seeded onto sterile 22 mm^2 coverslips in 6-well culture plates. Cells on coverslips were returned to the incubator for 24 hours prior to treatment. The phorboxazole A derivatives were added to the cells from a stock solution made in DMSO to a final concentration of 100 μM. Final DMSO concentration were kept at 0.1% in both test samples and controls. Cells were returned to a 37° C. incubation for 24 hours before further processing. At 24 hours, coverslips were fixed in −20° C. methanol for 15 minutes followed by a 15 minute incubation in phosphate buffered saline +0.1% Triton X-100 (PBS-Tx). Coverslips were then incubated with a monoclonal antibody against α-tubulin (Sigma Chemical Co., St. Louis, Mo.) at a dilution of 1:1000 for 40 minutes in a humidified chamber at 37° C. Coverslips were washed for 15 minutes in PBS-Tx followed by a 40 minute incubation with goat anti-mouse IgG antibody conjugated to FITC (Amersham Corp., Arlington Heights, Ill.). The coverslips were again rinsed in PBS-Tx and incubated with 5 μM TOTO-3 (Molecular Probes, Eugene, Oreg.) for 20 minutes to label the nuclear DNA. Coverslips were immediately inverted onto slides in Vectashield (Vector Labs, Burlingame) to prevent photobleaching, sealed with nail varnish and stored at 4° C.
Slides were examined using a Bio-Rad MRC-1024 Laser Scanning Confocal Microscope mounted on a Nikon Eclipse E800 upright microscope with high numerical aperture objectives. […]

Experiment [2] relates to RPMI-18226 (multiple myeloma). The experiment can be described thus: MTT cytotoxicity assay, RPMI-18226. To be noted: Homo sapiens, RPMI18226.
The test system of experiment [3] is ARH77 (multiple myeloma). Description: MTT cytotoxicity assay, ARH77. To be noted: Homo sapiens, ARH-77. For orientation: Formazan colour is commonly taken as a measure of viable cells.
Experiment [4] relates to HS-SULTAN (multiple myeloma). Description: MTT cytotoxicity assay, HS-SULTAN. To be noted: Homo sapiens.
Experiment [5] relates to U373 human glioblastoma cells. Description: MTT cytotoxicity assay, U373. The following applies: U373 MG, U373 (brain tumor, glioblastoma), 24-36 hours, read-out: IC50 [MTT]. The protocol:
(§1) The cytotoxicity assay of synthetic Phorboxazole A and various derivative compounds against human tumor cells was performed using the MTT (3-[4,5-dimethylthiazol-2-yl]-2,5-diphenyl tetrazolium bromide) assay (Boehringer Mannheim Corp., Indianapolis, Ind.). Briefly, exponentially growing brain tumor cells were seeded into a 96-well plate at a density of 2.5×10^4 cells/well and incubated for 36 hours at 37° C. prior to drug exposure. On the day of treatment, culture medium was carefully aspirated from the wells and replaced with fresh medium containing the various phorboxazole A derivative compounds as well as the tyrosine kinase inhibitory isoflavone genistein (GEN) at concentrations ranging from 0.1 to 250 μM. Triplicate wells were used for each treatment.
Human glioblastoma cells U373 (brain cancer), human B-lineage acute lymphoblastic leukemia cells NALM-6, and human breast cancer cells BT-20 were obtained from American Type Culture Collection (Rockville, Md.) and maintained as a continuous cell line in Dulbecco's modified Eagles's medium supplemented with 10% fetal bovine serum and antibiotics.
The cells were incubated with the various compounds for 24-36 hours at 37° C. in a humidified 5% CO2 atmosphere. To each well, 10 μl of MTT (0.5 mg/ml final concentration) was added and the plates were incubated at 37° C. for 4 hours to allow MTT to form formazan crystals by reacting with metabolically active cells. The fonnazan crystals were solubilized overnight at 37° C. in a solution containing 10% SDS in 0.01 M HCl. The absorbance of each well was measured in a microplate reader (Labsystems) at 540 nm and a reference wavelength of 690 nm. To translate the OD540 values into the number of live cells in each well, the OD540 values were compared to those on standard OD540-versus-cell number curves generated for each cell line. The percent survival was calculated using the formula: [formula]
The IC50 values were calculated by non-linear regression analysis.

The subject of experiment [6] is PC3 (prostate cancer). The experiment can be described thus: MTT cytotoxicity assay, PC3. The following applies: Homo sapiens.
The subject of experiment [7] is U266BL (multiple myeloma). Description: MTT cytotoxicity assay, U266BL. The following applies: Homo sapiens. The protocol:
as §1
The cells were incubated with the various compounds for 24-36 hours at 37° C. in a humidified 5% CO2 atmosphere. To each well, 10 μl of MTT (0.5 mg/ml final concentration) was added and the plates were incubated at 37° C. for 4 hours to allow MTT to form formazan crystals by reacting with metabolically active cells. […] The absorbance of each well was measured in a microplate reader (Labsystems) at 540 nm and a reference wavelength of 690 nm. […] The percent survival was calculated using the formula: [formula]
The IC50 values were calculated by non-linear regression analysis. […]

By IC50 is commonly meant the point on the concentration scale where inhibition reaches its midpoint. With `C=C1C[C@@H]2C[C@@H]3C[C@@H](O)C[C@@H](O3)c3coc(n3)/C=C/C[C@H]3O[C@@H](/C(C)=C/c4coc(C[C@]5(O)C[C@H](OC)C[C@H]([C@H](O)/C=C(C)/C=C/[C@@H](C/C=C/Br)OC)O5)n4)[C@H](C)[C@@H](OC(=O)/C=C\C[C@@H](C1)O2)[C@H]3C` [Compound 1, Phorboxazole A], in experiment [1], the Apoptosis-inducing activity entry was “apoptotic activity”. Besides, the IC50 was found to be 55.9 nM in experiment [2]; 7.5 nM in experiment [3]; 29.8 nM in experiment [4]; 6.7 nM in experiment [5]; 14.2 nM in experiment [6]; 14.9 nM in experiment [7].
